# Assay results reported in US9433710B2, “Biocompatible implant” (LABORATORIS SANIFIT, S. L., priority 2011, dated 2016).
# Legend:
# RAW 264.7 cells [1] = assay: Resorption pit assay on dentine discs; assay type: cell-based, mouse; conditions: 1 μM IP6 during osteoclastogenesis
# Procedure: RAW 264.7 cells were seeded on dentine slices at a density of 20,000 cells/cm^2. To study the effect of IP6 on OCL formation cells were cultured with media containing 100 ng/mL RANKL and IP6 (1 μM) over the course of the entire experiment. To study the effect of IP6 on mature osteoclasts-like cells. OCLs were generated by dosing RAW 264.7 cells with RANKL over the course of 6 days and then treated with IP6 (1 μM) for 4 days. After the culturing period, cells were removed from the dentine slices by sonication in 0.1 N NaOH for 2 minutes, stained in hematoxylin for 40 seconds and washed in distilled water. The surface of each dentine slice was examined by light microscopy for evidence of lacunar resorption and quantitative analysis of the resorption area was performed with Image J software 1.44p (NIH, USA).
# RAW 264.7 cells [2] = assay: Cell proliferation assay (BrdU incorporation); assay type: cell-based, mouse; conditions: IP6 for 24 hours, BrdU for 6 h
# Procedure: RAW cells 264.7 were seeded at a density of 2,500 cells/well in a 96-well plate and cultured for 24 h. After cell attachment, culture media was changed and different doses of IP6 were added. Cells were cultured for additional 24 hours and BrdU was added for the last 6 hours. Incorporation of BrdU was determinated by Cell Proliferation ELISA kit as described by the manufacturer.
# RAW 264.7 cells [3] = assay: Real-time RT-PCR of osteoclast gene and functional markers; assay type: cell-based, mouse; conditions: RANKL-treated cells, 5 days
# Procedure: To examine the effect of IP6 on OCL formation, 20,000 cells/cm2 were seeded in 24-well plates and, after 24 h, the culture medium was replaced with media containing 100 ng/mL RANKL and different doses of IP6 (0.1, 1, 10, 100 μM). Treatments were added after changing the media every 48 h over the course of 5 days. The effect of IP6 on OCL formation was assessed by analysis of the number of TRAP-positive cells, gene expression levels of osteoclast and functional markers, resorption activity on dentin discs and actin ring formation.
# Total RNA was isolated with Tripure from cells treated as describe above, following the instructions of the manufacturer. RNA was quantified using a spectrophotometer set at 260 nm (Nanodrop, Thermo Fisher Scientific Inc, US).
# The same amount of total RNA ([…]) from each sample was reverse transcribed to cDNA at 37° C. for 60 minutes in a final volume of […], using High Capacity RNA to cDNA kit (Applied Biosystems, USA). Each cDNA was diluted 1/5 and aliquots, to avoid freezing and thawing cycles, were stored at −20° C. until the PCR reactions were carried out.
# Real-time PCR was performed for two housekeeping genes: 18S rRNA, GAPDH; three osteoclast gene markers: TRAP, CalcR, CFMS; and four osteoclast functional markers: CtsK, MMP-9, Car2 and H+-ATPase.
# Real-time PCR was performed in the Lightcycler 480® (Roche Diagnostics, Mannheim, Germany) using SYBR green detection. Each reaction contained 7 μl Lightcycler-FastStart DNA MasterPLUS SYBR Green I (containing Fast Start Taq polymerase, reaction buffer, dNTPs mix, SYBRGreen I dye and MgCl2), 0.5 μM of each, the sense and the antisense specific primers (Table 1) and 3 μl of the cDNA dilution in a final volume of 10 μl. The amplification program consisted of a preincubation step for denaturation of the template cDNA (5 min 95° C.), followed by 45 cycles consisting of a denaturation step (10 s 95° C.), an annealing step (10 s 60° C.) and an extension step (10 s 72° C.). After each cycle, fluorescence was measured at 72° C. A negative control without cDNA template was run in each assay.
# To allow relative quantification after PCR, standard curves were constructed from standard reactions for each target and housekeeping genes. The crossing point readings for each of the unknown samples were used to calculate the amount of either the target or housekeeping relative to a standard curve, using the Second Derivative Maximum Method. Relative mRNA levels were calculated as the ratio of relative concentration for the target genes in the same sample using the Advanced Relative Quantification Method provided by the LightCycler 480 analysis software version 1.5 (Roche Diagnostics, Mannheim, Germany).
# RAW 264.7 cells [4] = assay: LDH cytotoxicity assay; assay type: cell-based, mouse; conditions: IP6 for 24 hours
# Procedure: RAW cells 264.7 were seeded at a density of 20,000 cells/cm2 in 24-well plate and cultured for 24 h. After cell attachment, culture media was changed and different doses of) IP6 were added. Cells were cultured for additional 24 hours and culture media was collected to test cytotoxicity (LDH activity). LDH cytotoxicity assay was performed using the Cytotoxicity Detection Kit according to the manufacturer's protocol. This colorimetric assay quantifies activity of LDH released from the cytosol of damaged cells into the supernatant and thus serves as an index of cell death.
# Results were presented relative to the LDH activity in the media of control cells (low control, 0% of cell death) and of cells treated with 1% Triton X-100 (high control, 100% death) using the equation: Cytotoxicity (%)=(exp value−low control)/(high control−low control)*100. 3. Cell Proliferation Assay
# bone resorption = conditions: background statement; cited from earlier work
# [5] = background statement; cited from earlier work
# RAW 264.7 cells [6] = assay: RANKL-induced osteoclast (OCL) formation, TRAP staining; assay type: cell-based, mouse; conditions: 5 days
# Procedure: Osteoclast-like cells were generated in culture from RAW 264.7 cells. 20,000 cells/cm2 were seeded in 24-well plates and placed in the CO2 incubator overnight to allow the cells to attach to the surface. After 24 h, the culture medium was replaced with media containing 100 ng/mL RANKL. Osteoclasts were successfully generated by dosing with RANKL every 48 h over the course of 5 days. To confirm the generation of multinucleated osteoclast-like cells, the cultured cells were stained for the enzyme TRAP using the TRAP-staining kit, according to the manufacturer's instructions. TRAP is the enzyme that has been used as a marker of osteoclast function for more than 20 years. TRAP-positive multinucleated osteoclasts were visualized by light microscopy and photographed. Each OCL formation assay was performed at least 3 times. To examine the effect of IP6 on OCL formation, 20,000 cells/cm2 were seeded in 24-well plates and, after 24 h, the culture medium was replaced with media containing 100 ng/mL RANKL and different doses of IP6 (0.1, 1, 10, 100 μM). Treatments were added after changing the media every 48 h over the course of 5 days. The effect of IP6 on OCL formation was assessed by analysis of the number of TRAP-positive cells, gene expression levels of osteoclast and functional markers, resorption activity on dentin discs and actin ring formation.
# [7] = system: human umbilical cord mesenchymal stem cells (hUC-MSCs); assay: Real-time RT-PCR of osteoblast markers in hUC-MSCs under osteogenic conditions; assay type: cell-based; conditions: 4 μM IP6 for 19 days
# Procedure: hUC-MSCs from two different donors were seeded (n=12) in 24-well plates and grown to confluence in growth media consisting of DMEM-LG supplemented with penicillin (50 IU/ml), streptomycin (50 μg streptomycin/mil) and 20% FBS. Cells were cultured at 37° C. in a humidified atmosphere of 5% CO2. At confluence (designated as day 0), cells were grown in differentiation media consisting of growth media supplemented with hydrocortisone (200 nM), ascorbic acid (50 μg/ml) and β-glycerophosphate (10 mM). Cell culture media, with or without IP6, was refreshed twice a week over a 19-day time period. The experimental procedure developed in example 5 was used. In this example, Real-time PCR was performed for two housekeeping genes: beta-actin, GAPDH; and four osteoblast markers: Runx2, Col1A, ALP and OC.
smiles,measurement,setting,value
"O=P(O)(O)O[C@H]1[C@H](OP(=O)(O)O)[C@@H](OP(=O)(O)O)[C@H](OP(=O)(O)O)[C@@H](OP(=O)(O)O)[C@H]1OP(=O)(O)O [IP6, Myo-inositol-1,2,3,4,5,6-hexakisphosphate]",RANKL-induced osteoclast bone resorption ability,RAW 264.7 cells [1],inhibits
same,cell proliferation (BrdU),RAW 264.7 cells [2],without affecting
same,MMP-9 mRNA levels,RAW 264.7 cells [3],decreased
same,TRAP mRNA levels,RAW 264.7 cells [3],decreased
same,calcitonin receptor mRNA levels,RAW 264.7 cells [3],decreased
same,cathepsin K mRNA levels,RAW 264.7 cells [3],decreased
same,cell viability (LDH activity),RAW 264.7 cells [4],without affecting
same,bone resorption in animal models of osteoporosis,bone resorption,inhibitor of bone resorption
same,hydroxyapatite dissolution,[5],potent inhibitor
same,osteoclastogenesis induced by RANKL,RAW 264.7 cells [6]; 100 ng/mL RANKL,decreases
same,number of TRAP positive cells,RAW 264.7 cells [6]; RANKL-treated cells,decreased
same,ALP mRNA levels compared to the control group,[7],higher
same,Col1A mRNA levels compared to the control group,[7],lower
same,OC mRNA levels compared to the control group,[7],higher
same,Runx-2 mRNA levels compared to the control group,[7],higher
same,osteoblast differentiation of hUC-MSCs,[7],increases
